Oligonucleotides are written 5' to 3', each unit as a sugar letter and its base; * is a phosphorothioate linkage, no mark a phosphodiester; rarer units and linkages stand in square brackets, end groups in braces. Plain capitals give the bases only. m = 2'-O-methyl; f = 2'-fluoro
Test system: C3 mRNA
Assay: Dual dose screen, C3 mRNA knockdown in HepG2 cells (bDNA assay)
Format: cell-based, human
Conditions: 24 h; for KD @ 0.1 nM: 0.1 nM siRNA; for KD @ 10 nM: 10 nM siRNA
Procedure: HepG2 cells were obtained from ATCC (ATCC in partnership with LGC Standards, Wesel, Germany, cat. #ATCC-HB-8065) and cultured in MEM Eagle (#M2279, Sigma-Aldrich, Germany), supplemented to contain 10% fetal calf serum (#1248D, Biochrom GmbH, Berlin, Germany), 1× non-essential amino acids (#K0293; Biochrom, Berlin, Germany), 4 mM L-Glutamine (#K0283, Biochrom, Berlin, Germany) and 100 U/ml Penicillin/100 μg/ml Streptomycin (#A2213, Biochrom GmbH, Berlin, Germany) at 37° C. in an atmosphere with 5% C02 in a humidified incubator.
For transfection of HepG2 cells with siRNAs, cells were seeded at a density of 15,000 cells/well into collagen-coated 96-well tissue culture plates (#655150, GBO, Germany). Transfection of siRNA was carried out with Lipofectamine RNAiMax (Invitrogen/Life Technologies, Karlsruhe, Germany) according to manufacturer's instructions for reverse transfection directly after seeding. In this experiment, a dual dose screen was performed with siRNAs in quadruplicates at 10 nM and 0.1 nM, respectively. siRNAs targeting Aha1 served at the same time as an unspecific control for C3 target mRNA expression and as a positive control to analyze transfection efficiency with regards to Aha1 mRNA level. Firefly-Luciferase and Renilla-Luciferase was used as a mock transfection.
After 24 h of incubation with siRNAs, medium was removed and cells were lysed in 150 μl Medium-Lysis Mixture (1 volume lysis mixture, 2 volumes cell culture medium) and then incubated at 53° C. for 30 minutes. bDNA assay (ThermoFisher QuantiGene RNA assays) was performed according to manufacturer's instructions with a probeset directed to human C3 (accession-#NM_000064 between base 106 and base 907 of the sequence) which had been designed by ThermoFisher Scientific, and synthesized by Metabion International AG, Planegg, Germany. Luminescence was read using 1420 Luminescence Counter (WALLAC VICTOR Light, Perkin Elmer, Rodgau-Jugesheim, Germany) following 30 minutes incubation at room temperature in the dark.
Aha1-siRNA served as an unspecific control for C3 mRNA expression and as a positive control to analyze the transfection efficiency by measuring Aha1 mRNA level by hybridization with an Aha1 probeset. The Aha-1 siRNA used had been formerly selected from a big set of candidate siRNAs, and is known to be very active in vitro and in vivo. Transfection efficiency for each 96-well plate was calculated by analysis of Aha1-knock-down with Aha1-siRNA (normalized to GapDH) compared to an unspecific control. […] Transfection efficiency with siAha1 at the 10 nM dose was about 90%, and the transfection efficiency at the 0.5 nM dose was about 85%.
Activity of the siRNAs was measured by the fluorescence or percent mRNA concentration of the respective targets. For each well, the target mRNA level was normalized to the respective GAPDH mRNA level. The activity of a given siRNA was expressed as percent mRNA concentration of the respective target (normalized to GAPDH mRNA) in treated cells, relative to the target mRNA concentration (normalized to GAPDH mRNA) averaged across control wells.

Substance	KD @ 0.1 nM	KD @ 10 nM
1 (sense mU*mC*fAmAmCmUfCfAfCmCmUfGmUmAmAmUfAmAmA; antisense mU*fU*mUmAmUmUmAmCmAmGmGmUmGfAmGmUmUmGmA*mU*mU; siRNA) [compound 1]	68%	92%
4 (sense mU*mC*fCmAmAmGfCfCfUmUmGfGmCmUmCmAfAmUmA; antisense mU*fA*mUmUmGmAmGmCmCmAmAmGmGfCmUmUmGmGmA*mU*mU; siRNA) [compound 4]	66%	94%
9 (sense mA*mU*fCmGmGmAfUfCfUmUmCfAmCmCmGmUfCmAmA; antisense mU*fU*mGmAmCmGmGmUmGmAmAmGmAfUmCmCmGmAmU*mU*mU; siRNA) [compound 9]	63%	91%
10 (sense mU*mC*fAmAmCmUfUfCfCmUmCfCmUmGmCmGfAmAmA; antisense mU*fU*mUmCmGmCmAmGmGmAmGmGmAfAmGmUmUmGmA*mU*mU; siRNA) [compound 10]	84%	88%
16 (sense mC*mA*fAmUmGmAfCfUfUmUmGfAmCmGmAmGfUmAmA; antisense mU*fU*mAmCmUmCmGmUmCmAmAmAmGfUmCmAmUmUmG*mU*mU; siRNA) [compound 16]	67%	92%
22 (sense mC*mC*fAmAmCmUfAfCfAmUmGfAmAmCmCmUfAmCmA; antisense mU*fG*mUmAmGmGmUmUmCmAmUmGmUfAmGmUmUmGmG*mU*mU; siRNA) [compound 22]	67%	93%
